Results: patent US20070141086A1 (priority 2003, published 2007)

Test system: virulent culture of M. haemolytica (Oklahoma State strain)
Type: in vivo, beef calves
Conditions: conclusion over vaccination and challenge study in calves
Procedure: For the vaccination challenge, 5 ml of a virulent culture of M. haemolytica (Oklahoma State strain) was administered by transthoracic injection into the right and left caudal lung lobes of each calf (10 ml of culture per calf) on Day 34 of the study. The inoculum contained approximately 5.6×10^8 CFU/ml.
One animal in T01 died immediately following challenge due to pulmonary hemorrhage as a result of challenge administration; thus its lung lesion data was excluded from the analysis. One animal in T03 was found dead on Day 37 as a result of severe pneumonia but was necropsied and its lung data was analyzed along with the data from the other animals. There were no significant differences between the treatment groups (P>0.05).

Substance: Tulathromycin
- Overall adjuvant function / immune response indicators (antibody production, attitude, respiratory effort, lung lesions): appeared to effectively replace the adjuvant
